{"source": "patent US20240277767A1", "about": "“METHODS AND USES” (PROLEUKOCYTE AB, priority 2021, published 2024)", "key": {"[1]": {"system": "NK cells", "test": "IFNγ release (ELISA) by pre-treated NK cells after H2O2 exposure", "assay_type": "cell-based, human", "method": "(§1) Lymphocytes were pre-treated for 18 h with Auranofin (AUF, with the concentration 1 μg/mL for NK cells and 0.5 μg/mL for TIL, if not indicated differently), DL-Sulforaphane (SUL) or Dimethyl Fumarate (DMF) (all Sigma-Aldrich) at indicated concentrations.\nFor Nrf2 inhibition, NK cells were treated with 50 μM ML-385 (Sigma-Aldrich) in parallel. For H2O2 treatment, lymphocyte cells were washed and resuspended to 1×10^6 cells/mL in medium and exposed to indicated H2O2 (Sigma-Aldrich) concentration for 1 h at 37° C. Cells were washed with medium and then used for further experiments. For monocyte experiments, autologous NK cell-monocytes or TIL-monocytes were used. NK cells/TIL were isolated and pre-treated with 0.5 μg/mL AUF, as described above, and co-cultured with unstimulated at the ratio, 1:2 M:NK, or stimulated monocytes at the ratio, 1:1 M:NK, if not indicated otherwise. Stimulated monocytes were activated with 100 ng/ml PMA for 1 min, washed and added at indicated ratio, the number of NK cell/TIL was kept constant. As control, H2O2 was used at indicated concentration. […]\nFor cytokine release assay, NK cells and TIL were cultured with indicated tumour cells at the effector target ratio 4:1 (E:T) for 24 h in U-bottom plates. IFNγ secretion was measured using human IFN-γ ELISA development kit (Mabtech) following the manufacturer's instructions."}, "[2]": {"system": "tumour infiltrating lymphocytes (TIL)", "test": "[Cr51]-release assay: lysis of autologous tumour cells by pre-treated TIL", "assay_type": "cell-based, human", "method": "Melanoma patient derived TIL and CD19 directed CAR T cells were generated as previously described (Magalhaes et al., 2018; Lövgren et al., 2020).\nas §1\n(§2) For Nrf2 inhibition, NK cells were treated with 50 μM ML-385 (Sigma-Aldrich) in parallel. For H2O2 treatment, lymphocyte cells were washed and resuspended to 1×10^6 cells/mL in medium and exposed to indicated H2O2 (Sigma-Aldrich) concentration for 1 h at 37° C. Cells were washed with medium and then used for further experiments. For monocyte experiments, autologous NK cell-monocytes or TIL-monocytes were used. NK cells/TIL were isolated and pre-treated with 0.5 μg/mL AUF, as described above, and co-cultured with unstimulated at the ratio, 1:2 M:NK, or stimulated monocytes at the ratio, 1:1 M:NK, if not indicated otherwise. Stimulated monocytes were activated with 100 ng/ml PMA for 1 min, washed and added at indicated ratio, the number of NK cell/TIL was kept constant. As control, H2O2 was used at indicated concentration. Cells were co-cultured for 2 h and then effector cells were stained for intracellular ROS (see flow cytometry) or used as effector cells in Cr^51 release assay (E:T ratio 10:1).\nFor cytotoxic assay, a standard 4 h [Cr^51]-release assay was used. Briefly, tumour cells were harvested and labeled with 51Cr (PerkinElmer) and used as target cells. Effector cells, NK cells and T cells, were co-cultured in 96-well V-bottom plate with indicated tumour cells at the stated effector target ratio (E:T). The supernatant was collected onto LUMA plates (Perkin-Elmer) and radioactivity/tumour cell lysis was detected by MicroBeta2 (Perkin Elmer). Target cell killing measured by % specific lysis and calculated using the formula: ((experimental release-spontaneous release)/(maximum release-spontaneous release))*100."}, "[3]": {"system": "Nrf2 target genes (NQO1, HMOX1, TXNRD1, Keap1)", "test": "qPCR of classical Nrf2 target genes in NK cells", "assay_type": "cell-based, human", "method": "(§3) Lymphocytes were pre-treated with AUF, SUL or DMF as described above. RNA was isolated using TRIzol™ Plus RNA Purification Kit (Invitrogen). cDNA was generated using the iScript™ cDNA Synthesis Kit (Bio-Rad) and qPCR was done using iTaq™ Universal SYBR® Green Supermix (Bio-Rad) in the CFX96 Touch Real-Time PCR Detection System (Bio-Rad). Fold change expression from untreated cells was calculated using the 2^-ΔΔCt formula with b-actin as reference gene. Evaluated genes were NAD(P)H Quinone Dehydrogenase 1 (NQO1), Kelch Like ECH Associated Protein 1 (Keap1), Heme Oxygenase 1 (HMOX1) and Thioredoxin Reductase 1 (TXNRD1)."}, "[4]": {"system": "Nrf2 target genes (NQO1, HMOX1, TXNRD1, Keap1)", "test": "qPCR of classical Nrf2 target genes in TIL", "assay_type": "cell-based, human", "method": "as §3"}, "[5]": {"system": "tumour infiltrating lymphocytes (TIL)", "test": "Intracellular ROS levels in TIL (CM-H2DCFDA, flow cytometry)", "assay_type": "cell-based, human", "method": "as §2\nFor TIL, T cells were pre-incubated with 10 μM CM-H2DCFDA (Thermo Fisher Scientific) solution in RPMI for 30 min at 37° C. prior to H2O2 treatment and then stained with anti-CD3, anti-CD4 and anti-CD8."}, "[6]": {"system": "NK cells", "test": "Phenotype analysis of NK cell surface markers (flow cytometry)", "assay_type": "cell-based, human", "method": "All antibodies (see Table 1) and FACS reagents were used according to manufactures recommendation, if not stated otherwise. All antibodies had been titrated for optimal signal-to-noise ratio and all staining's were performed in PBS supplemented with 1% FBS. All staining's contained a live/dead marker. Samples were fixed with 2% PFA (Thermo scientific) for 15 min before acquired on a NovoCyte (ACEA Biosciences) and analysed using FlowJo Software (TreeStar).\nFor evaluating CD16 expression, NK cells were treated as described above. After H2O2 treatment, NK cells were incubated for 2 h in RPMI 2% AB serum, stained with anti-CD3, anti-CD56 and anti-CD16 and analyzed."}, "[7]": {"molecular_target": "T1, Nrf2 (Homo sapiens, UniProt Q16236)", "T1 sequence (Q16236 1-605)": "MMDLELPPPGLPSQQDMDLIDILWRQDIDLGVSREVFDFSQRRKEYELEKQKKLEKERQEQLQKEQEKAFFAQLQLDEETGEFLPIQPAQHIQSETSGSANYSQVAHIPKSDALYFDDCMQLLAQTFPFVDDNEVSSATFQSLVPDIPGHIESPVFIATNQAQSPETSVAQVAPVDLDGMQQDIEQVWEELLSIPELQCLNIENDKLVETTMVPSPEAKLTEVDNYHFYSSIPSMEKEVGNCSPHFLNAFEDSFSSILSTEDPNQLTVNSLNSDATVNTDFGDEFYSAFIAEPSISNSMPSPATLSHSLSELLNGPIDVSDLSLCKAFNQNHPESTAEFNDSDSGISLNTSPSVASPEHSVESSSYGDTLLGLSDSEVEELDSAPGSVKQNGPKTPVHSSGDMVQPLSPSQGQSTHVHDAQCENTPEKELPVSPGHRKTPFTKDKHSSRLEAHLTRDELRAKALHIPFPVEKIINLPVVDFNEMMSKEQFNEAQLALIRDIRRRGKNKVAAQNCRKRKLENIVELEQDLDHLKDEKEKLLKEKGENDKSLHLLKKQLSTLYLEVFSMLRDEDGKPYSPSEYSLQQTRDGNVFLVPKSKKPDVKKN", "details": "presumably via inhibition of TrxR (Saei et al., 2020); cited from earlier work"}, "[8]": {"system": "cancer cells", "details": "high doses (Stafford et al., 2018; Rigobello et al., 2008); cited from earlier work"}}}
{"smiles": "CC(=O)OC[C@H]1O[C@@H]([S-])[C@H](OC(C)=O)[C@@H](OC(C)=O)[C@@H]1OC(C)=O.CCP(CC)CC.[Au+]", "note": "[AUF, Auranofin]", "values": [{"measurement": "Difference between 18 h and 24 h pre-treatment or 30 min pulse followed by 17.5 h incubation", "setting": "[1]; NK cells, IFNγ release", "value": "no difference"}, {"measurement": "Cytokine release (IFNγ) capacity of NK cells following exposure to H2O2", "setting": "[1]; vs untreated NK cells", "value": "improved"}, {"measurement": "Lysis of autologous tumour cells by TIL after AUF removal", "setting": "[2]; 0-72 h after AUF removal, H2O2", "value": "increased lysis of autologous tumour cells"}, {"measurement": "Specific lysis of autologous tumour cells by TIL", "setting": "[2]; KADA, also in the absence of ROS", "value": "clearly higher"}, {"measurement": "Time after AUF withdrawal until which increased lysis by TIL lasted", "setting": "[2]; highest AUF concentration", "value": 72, "unit": "h"}, {"measurement": "Time of HMOX1 expression peak in NK cells", "setting": "[3]", "value": 6, "unit": "h"}, {"measurement": "HMOX1 expression in NK cells (fold change vs untreated)", "setting": "[3]; already at 1 h", "value": "pronounced upregulation"}, {"measurement": "Expression of the other Nrf2 target genes in NK cells (fold change vs untreated)", "setting": "[3]; kinetic", "value": "more gradually increased over time"}, {"measurement": "Time of HMOX1 expression peak in TIL", "setting": "[4]", "value": 3, "unit": "h"}, {"measurement": "Activation of Nrf2 target genes in TIL", "setting": "[4]; TIL from three melanoma patients KADA, ANRU, BEHA", "value": "robust activation"}, {"measurement": "Effect on intracellular ROS levels in TIL", "setting": "[5]; 72 h after AUF removal", "value": "effects remained"}, {"measurement": "Fluorescence correlating to intracellular ROS levels in TIL", "setting": "[5]; KADA and BEHA TIL", "value": "lowered"}, {"measurement": "Differences in NK cell surface markers with and without AUF pre-treatment", "setting": "[6]; DNAM-1, granzyme B, perforin, CD57, CD69, NKG2A, NKG2D, NKp40, NKp46", "value": "few differences"}, {"measurement": "Frequency of NK cells expressing CD16 after exposure to H2O2", "setting": "[6]; untreated compared to AUF pre-treated NK cells", "value": "significant decrease in frequency of untreated NK cells expressing CD16"}, {"measurement": "NKp30 expression on NK cells", "setting": "[6]; upon exposure to H2O2", "value": "increased expression"}, {"measurement": "DNAM-1 and NKp46 on NK cells", "setting": "[6]; with exposure to H2O2", "value": "reduced frequency of positive NK cells and/or reduced cell surface levels"}, {"measurement": "DNAM-1, CD69 and NKG2D on NK cells", "setting": "[6]; without exposure to H2O2", "value": "reduced frequency of positive NK cells and/or reduced cell surface levels"}, {"measurement": "Activation of Nrf2", "setting": "[7]", "value": "strong activator of Nfr2"}, {"measurement": "Toxicity / cell death in cancer cells", "setting": "[8]", "value": "toxic and induce cell death"}]}
